Earlier results as cited in patent US12414956B2, “Method for smoking cessation” (CALISTA CAPITAL, LLC, priority 2017, dated 2025).
Like-named read-outs stand apart in the source and are kept apart here.

Columns and labels:
[1] = after six months, clinical trials
[2] = mean, capsules, adult subjects, plasma

Compound | success rate [1] [%] | AUC ([2]; single 300 mg oral dose) [ng·h/mL] | Cmax ([2]; single 300 mg oral dose) [ng/mL] | tmax ([2]; single 300 mg oral dose) [h] | AUC ([2]; single 600 mg oral dose) [ng·h/mL] | Cmax ([2]; single 600 mg oral dose) [ng/mL] | tmax ([2]; single 600 mg oral dose) [h]
c1cnc2cc3c(cc2n1)[C@@H]1CNC[C@H]3C1 [CHANTIX, varenicline] | 14 | – | – | – | – | – | –
C=CC1=C(C(=O)O)N2C(=O)[C@@H](NC(=O)/C(=N\O)c3csc(N)n3)[C@H]2SC1 [Cefdinir, cefdinir] | – | 7050 | 1600 | 2.9 | 11100 | 2870 | 3.0
